Earlier results in patent US20250195440A1, “PHARMACEUTICAL FORMULATION COMPRISING GLUCOKINASE ACTIVATOR AND USE THEREOF” (Hua Medicine USA Inc., priority 2023, published 2025).

How the values were obtained:
[1] = test system: glucose-stimulated GLP-1 secretion; conditions: patients with type II diabetes and obesity; Dorzagliatin alone
[2] = test system: esterase enzymes in gastrointestinal tract; conditions: with esterase enzymes in gastrointestinal tract

Structure (SMILES): CC(C)C[C@@H](C(=O)Nc1ccn(C[C@@H](O)CO)n1)N1CC(Oc2ccccc2Cl)=CC1=O [Dorzagliatin, (S)-2-[4-(2-chloro-phenoxy)-2-oxo-2,5-dihydro-pyrrol-1-yl]-4-methyl-pentanoic acid [1-((R)-2,3-dihydroxy-propyl)-1H-pyrazol-3-yl]-amide]
- Impaired glucose-stimulated GLP-1 secretion [1]: improved

Structure (SMILES): CC(C)C[C@@H](C(=O)Nc1ccn(C[C@@H](O)COC(=O)c2cccnc2)n1)N1CC(Oc2ccccc2Cl)=CC1=O [compound of formula (I)]
- Conversion into active Dorzagliatin [2]: quickly and completely converted
